Reference: patent US7671061B2, “Methods and compositions for treating pain” (Hydra Biosciences, Inc., priority 2005, dated 2010)

How the values were obtained:
hTRPV4 = hTRPV4 (Homo sapiens, UniProt Q9HBA0); assay: hTRPV4 patch clamp selectivity; format: cell-based; conditions: Table 2
hTRPA1 [1] = target: T1, hTRPA1 (Homo sapiens, UniProt O75762, K186N); assay: TRPA1 patch clamp (perforated patch, AITC-activated current); format: cell-based; conditions: Table 2; inward current; read-out: hTRPA1 Patch Inwd IC50
T1 construct: expressed in transfected cells; host or cells: HEK293/TREx (Invitrogen), induced with tetracycline
Method in brief: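 HEK293 TREx cells expressing the channel were recorded by amphotericin perforated patch at −40 mV holding, with 400 ms ramps from −120 to +100 mV every 5 s. Current was activated with 5 μM AITC in pH 7.4 external solution, and block of inward and outward current was measured at −80 and +80 mV with AITC still present.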

hERG = hERG (Homo sapiens, UniProt Q12809); assay: hERG patch clamp (Qpatch) selectivity; conditions: Table 2
hTRPA1 [2] = target: T1, hTRPA1; assay: High throughput Ca2+ fluorescence (Fluo4) assay, AITC stimulation; format: cell-based; conditions: Table 2; read-out: hTRPA1 Fluor IC50
Method in brief: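 Tetracycline-induced HEK293/TREx cells loaded with 1 μM Fluo4/AM for 60 min at room temperature. Compound added for 2 min after a 4-frame baseline, then AITC; fluorescence followed ~3 min.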

T1 sequence (O75762 whole entry K186N): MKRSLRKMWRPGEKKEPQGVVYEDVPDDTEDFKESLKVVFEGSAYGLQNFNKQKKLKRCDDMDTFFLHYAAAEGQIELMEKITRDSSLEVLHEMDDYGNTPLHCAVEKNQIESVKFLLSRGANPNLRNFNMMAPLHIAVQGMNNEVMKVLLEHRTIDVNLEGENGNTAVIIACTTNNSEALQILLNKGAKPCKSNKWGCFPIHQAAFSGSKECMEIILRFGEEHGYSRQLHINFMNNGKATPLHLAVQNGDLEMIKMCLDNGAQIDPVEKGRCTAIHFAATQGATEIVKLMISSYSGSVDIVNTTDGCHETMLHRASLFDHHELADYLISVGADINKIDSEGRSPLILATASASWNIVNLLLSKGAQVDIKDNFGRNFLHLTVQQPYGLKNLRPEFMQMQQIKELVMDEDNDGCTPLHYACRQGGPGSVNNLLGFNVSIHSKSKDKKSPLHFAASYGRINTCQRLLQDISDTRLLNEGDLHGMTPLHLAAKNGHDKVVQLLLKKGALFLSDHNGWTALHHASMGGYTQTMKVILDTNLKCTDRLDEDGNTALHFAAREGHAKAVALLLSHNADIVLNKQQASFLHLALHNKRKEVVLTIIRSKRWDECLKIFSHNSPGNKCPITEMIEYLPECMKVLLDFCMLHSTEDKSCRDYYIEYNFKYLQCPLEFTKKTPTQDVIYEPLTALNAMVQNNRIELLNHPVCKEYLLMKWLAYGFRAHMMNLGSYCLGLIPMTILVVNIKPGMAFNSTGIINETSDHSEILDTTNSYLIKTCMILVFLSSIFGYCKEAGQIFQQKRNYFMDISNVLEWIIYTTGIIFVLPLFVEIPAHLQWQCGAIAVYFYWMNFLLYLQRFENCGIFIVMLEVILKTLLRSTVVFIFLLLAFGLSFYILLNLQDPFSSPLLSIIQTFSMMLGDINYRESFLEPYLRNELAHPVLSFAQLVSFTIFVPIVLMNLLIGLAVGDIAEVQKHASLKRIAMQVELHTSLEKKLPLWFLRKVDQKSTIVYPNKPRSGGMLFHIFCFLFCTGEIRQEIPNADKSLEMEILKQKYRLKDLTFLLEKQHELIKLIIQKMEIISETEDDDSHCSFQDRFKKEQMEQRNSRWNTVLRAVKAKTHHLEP
Sequence of hTRPV4 (Q9HBA0 whole entry): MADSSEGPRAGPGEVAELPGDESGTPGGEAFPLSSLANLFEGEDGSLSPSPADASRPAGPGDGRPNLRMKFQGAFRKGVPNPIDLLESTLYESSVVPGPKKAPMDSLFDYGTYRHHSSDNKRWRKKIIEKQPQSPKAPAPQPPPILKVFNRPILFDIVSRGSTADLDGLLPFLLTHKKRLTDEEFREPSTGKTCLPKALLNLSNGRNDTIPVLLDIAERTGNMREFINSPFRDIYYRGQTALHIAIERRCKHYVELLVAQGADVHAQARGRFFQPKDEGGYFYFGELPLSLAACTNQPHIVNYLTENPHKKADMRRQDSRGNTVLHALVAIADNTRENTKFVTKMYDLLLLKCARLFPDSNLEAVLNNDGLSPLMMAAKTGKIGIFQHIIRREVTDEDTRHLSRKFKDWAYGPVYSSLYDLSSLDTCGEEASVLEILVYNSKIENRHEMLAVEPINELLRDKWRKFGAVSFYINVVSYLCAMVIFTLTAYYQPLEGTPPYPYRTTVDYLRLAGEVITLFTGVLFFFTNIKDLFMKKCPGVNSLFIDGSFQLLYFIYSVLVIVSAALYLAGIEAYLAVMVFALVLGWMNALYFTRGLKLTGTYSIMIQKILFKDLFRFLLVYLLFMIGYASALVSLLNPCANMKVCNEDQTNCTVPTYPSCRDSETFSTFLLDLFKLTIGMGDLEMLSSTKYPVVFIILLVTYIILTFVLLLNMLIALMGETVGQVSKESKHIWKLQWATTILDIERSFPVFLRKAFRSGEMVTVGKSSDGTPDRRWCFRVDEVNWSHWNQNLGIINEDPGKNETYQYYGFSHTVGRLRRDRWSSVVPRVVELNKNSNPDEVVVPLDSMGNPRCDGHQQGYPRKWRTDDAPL
Sequence of hERG (Q12809 whole entry): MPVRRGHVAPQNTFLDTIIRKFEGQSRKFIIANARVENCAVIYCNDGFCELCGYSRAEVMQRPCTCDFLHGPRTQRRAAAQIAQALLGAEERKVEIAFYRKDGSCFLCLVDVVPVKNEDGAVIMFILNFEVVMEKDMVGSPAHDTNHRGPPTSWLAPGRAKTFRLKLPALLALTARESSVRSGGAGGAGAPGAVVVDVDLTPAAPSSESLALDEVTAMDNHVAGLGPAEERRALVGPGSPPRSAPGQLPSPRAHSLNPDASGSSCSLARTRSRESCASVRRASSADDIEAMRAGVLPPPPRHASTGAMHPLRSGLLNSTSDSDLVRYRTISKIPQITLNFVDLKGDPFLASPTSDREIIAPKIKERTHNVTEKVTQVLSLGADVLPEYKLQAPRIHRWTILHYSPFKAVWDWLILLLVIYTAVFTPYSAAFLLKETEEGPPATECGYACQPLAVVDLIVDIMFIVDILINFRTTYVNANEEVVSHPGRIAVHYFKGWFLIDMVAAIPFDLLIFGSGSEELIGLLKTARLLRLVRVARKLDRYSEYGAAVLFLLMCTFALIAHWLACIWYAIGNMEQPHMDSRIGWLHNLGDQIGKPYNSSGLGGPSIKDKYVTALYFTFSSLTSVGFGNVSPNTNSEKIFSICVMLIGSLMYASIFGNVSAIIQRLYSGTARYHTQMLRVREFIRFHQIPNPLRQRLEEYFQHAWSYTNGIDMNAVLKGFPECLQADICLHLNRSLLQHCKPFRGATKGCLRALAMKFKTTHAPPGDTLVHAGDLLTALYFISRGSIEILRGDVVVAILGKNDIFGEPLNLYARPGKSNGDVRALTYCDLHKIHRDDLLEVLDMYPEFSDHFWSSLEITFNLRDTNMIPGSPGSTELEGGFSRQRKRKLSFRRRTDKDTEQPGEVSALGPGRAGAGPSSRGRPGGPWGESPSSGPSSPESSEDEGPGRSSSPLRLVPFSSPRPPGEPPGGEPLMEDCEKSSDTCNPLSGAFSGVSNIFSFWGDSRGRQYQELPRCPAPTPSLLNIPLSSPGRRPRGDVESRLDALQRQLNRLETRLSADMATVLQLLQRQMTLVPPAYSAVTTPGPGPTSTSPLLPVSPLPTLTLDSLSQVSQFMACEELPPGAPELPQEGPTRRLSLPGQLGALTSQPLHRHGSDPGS

- IC50 (hTRPV4): > 10 µM
- selective for TRPA1 over TRPV4 (hTRPV4): ≥ 15 fold
- IC50 (hTRPA1 [1]): ≤ 1 µM
- IC50 (hTRPA1 [2]): ≤ 1 µM
Structure (SMILES): Cn1c(=O)c2c(ncn2CC(=O)Nc2ccc3c(c2)OC2(CCCCC2)O3)n(C)c1=O [Compound 347]
- IC50 (hERG; hERG IC50 (nM)): ≥ 20000 nM
- selectivity ratio (hERG; human, selective for TRPA1 over hERG): ≥ 45
